pKd: −log10 of the molar value.
How the values were obtained:
[1] = target: T1, PPARγ (Homo sapiens, UniProt P37231); test: Cross curve PPAR transactivation test (luciferase reporter, HeLN cells), PPARγ; type: cell-based; settings: HeLN cells stably transfected with Gal-hPPARγ and ERE-βGlob-Luc-SV-Neo; Schild regression against reference agonist; read-out: PPAR γ Kd app
T1 construct: luciferase reporter plasmid ERE-βGlob-Luc-SV-Neo
T1 sequence (P37231 238-505 limits assumed): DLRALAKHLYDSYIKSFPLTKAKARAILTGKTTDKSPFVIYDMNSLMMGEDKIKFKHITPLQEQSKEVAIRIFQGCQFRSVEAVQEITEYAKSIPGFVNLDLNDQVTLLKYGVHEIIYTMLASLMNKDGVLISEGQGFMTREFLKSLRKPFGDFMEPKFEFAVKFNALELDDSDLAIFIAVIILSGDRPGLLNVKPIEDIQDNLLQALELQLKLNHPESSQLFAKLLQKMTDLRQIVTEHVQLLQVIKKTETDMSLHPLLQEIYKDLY
Method: (§1) The activation of receptors with an agonist (activator) in HeLN cells leads to the expression of a reporter gene, luciferase, which, in the presence of a substrate, generates light. The modulation of the receptors is measured as quantity of luminescence produced after incubating the cells in the presence of a reference agonist. The ligands will displace the agonist from its site. The measurement of the activity is performed by quantification of the light produced. This measurement makes it possible to determine the modulatory activity of the compounds according to the invention by determining the constant which is the affinity of the molecule for the receptor. […]
(§2) The various dilutions of the test products and of the reference ligand are added in an amount of 5 μl per well. […] After 5 minutes, the plates are read by the luminescence reader.
(§3) These cross curves make it possible to determine the AC50 values (concentrations at which 50% activation is observed) for the reference ligand at various concentrations of test product. These AC50 values are used to calculate the Schild regression by plotting a straight line corresponding to the Schild equation (“Quantitation in Receptor Pharmacology” Terry P. Kenakin, Receptors and Channels, 2001, 7, 371-385) which leads to Kd app values being obtained (in nM).

[2] = target: T2, PPARα (Homo sapiens, UniProt Q07869); test: Cross curve PPAR transactivation test (luciferase reporter, HeLN cells), PPARα; type: cell-based; settings: HeLN cells stably transfected with Gal-hPPARα and ERE-βGlob-Luc-SV-Neo; Schild regression against reference agonist; n.a. means not active; read-out: PPAR α Kd app
T2 sequence (Q07869 200-468 limits assumed): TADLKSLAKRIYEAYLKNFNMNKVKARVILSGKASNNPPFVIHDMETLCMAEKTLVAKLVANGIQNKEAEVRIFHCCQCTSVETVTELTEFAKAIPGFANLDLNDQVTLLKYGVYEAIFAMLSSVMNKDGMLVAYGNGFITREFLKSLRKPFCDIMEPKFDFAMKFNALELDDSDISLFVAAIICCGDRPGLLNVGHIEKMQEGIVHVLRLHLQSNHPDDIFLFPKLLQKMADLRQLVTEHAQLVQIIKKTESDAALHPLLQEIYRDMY
Method: as §1, §2, §3

`CCCCCCCOc1cc(Sc2nnc(-c3ccc(C(C)(C)C)cc3)n2C)ccc1CNc1ccc(CC(=O)OCC)cc1` [Example 1, Ethyl(4-{4-[5-(4-tert-butylphenyl)-4-methyl-4H-[1,2,4]-triazol-3-ylsulfanyl]-2-heptyloxybenzylamino}phenyl)acetate] gave a pKd [1] of 7.22.

Compound `CCCCCCCOc1cc(Sc2nnc(-c3ccc(C(C)(C)C)cc3)n2C)ccc1CNc1ccc(CC(=O)O)cc1` [Example 2, (4-{4-[5-(4-tert-Butylphenyl)-4-methyl-4H-[1,2,4]-triazol-3-ylsulfanyl]-2-heptyloxybenzylamino}phenyl)acetic acid] has a pKd [2] of 5.10 and a pKd [1] of 7.82.

Source: patent US7829588B2, “Modulators of the PPAR-type receptors and pharmaceutical/cosmetic applications thereof” (Galderma Research & Development, priority 2003, dated 2010)
